The values that follow come from patent US20240317724A1, “3,4-METHYLENEDIOXYMETHAMPHETAMINE AND RELATED PS[…] USES THEREOF” (Terran Biosciences Inc., priority 2021, published 2024).

The nature of this data set: Single oral (PO) dose pharmacokinetics study in rats; plasma concentration of MDMA (and prodrug) by LC-MS/MS. Conditions: male SD rats.
[1] abbreviates: 0.50 h after oral dosing of prodrug 10 mg/Kg.
[2] abbreviates: 1.00 h after oral dosing of prodrug 10 mg/Kg.
Where [3] appears, read: 2.00 h after oral dosing of prodrug 10 mg/Kg.
Setting [4] is: 4.00 h after oral dosing of prodrug 10 mg/Kg.
The mark [5] stands for this setting: 7.00 h after oral dosing of prodrug 10 mg/Kg.
Where [6] appears, read: 24.0 h after oral dosing of prodrug 10 mg/Kg.

On to `CC(Cc1ccc2c(c1)OCO2)N(C)C(=O)OC1COC1` (stereo not drawn) [Oxetane-3-yl carbamate prodrug of MDMA, Oxetan-3-yl N-[2-(1,3-benzodioxol-5-yl)-1-methyl-ethyl]-N-methyl-carbamate], for which the “Mean plasma concentration of metabolite MDMA” value (shortened to “Mean plasma concentration”) is recorded as “BLQ (BLQ: Below Lower Limit of Quantification (0.5 ng/mL))” under setting [1]; “BLQ (BLQ: Below Lower Limit of Quantification (0.5 ng/mL))” under setting [2]; “BLQ (BLQ: Below Lower Limit of Quantification (0.5 ng/mL))” under setting [3]; “BLQ (BLQ: Below Lower Limit of Quantification (0.5 ng/mL))” under setting [4]; “BLQ (BLQ: Below Lower Limit of Quantification (0.5 ng/mL))” under setting [5]; “BLQ (BLQ: Below Lower Limit of Quantification (0.5 ng/mL))” under setting [6].
Regarding `CC(Cc1ccc2c(c1)OCO2)N(C)C(=O)CCCC(=O)O` (stereo not drawn) [Glutarate Prodrug of MDMA, 4-{[2-(2H-1,3-Benzodioxol-5-yl)-1-methyl-ethyl]-N-methylcarbamoyl}butyric acid], the “Mean plasma concentration” value by setting is: under setting [1], “BLQ (BLQ: Below Lower Limit of Quantification (0.5 ng/mL))”; under setting [2], “BLQ (BLQ: Below Lower Limit of Quantification (0.5 ng/mL))”; under setting [3], “BLQ (BLQ: Below Lower Limit of Quantification (0.5 ng/mL))”; under setting [4], “BLQ (BLQ: Below Lower Limit of Quantification (0.5 ng/mL))”; under setting [5], “BLQ (BLQ: Below Lower Limit of Quantification (0.5 ng/mL))”; under setting [6], “BLQ (BLQ: Below Lower Limit of Quantification (0.5 ng/mL))”.
As to `CC(Cc1ccc2c(c1)OCO2)N(C)C(=O)CCCCC(=O)O` (stereo not drawn) [Adipate prodrug of MDMA, 5-{[2-(2H-1,3-Benzodioxol-5-yl)-1-methyl-ethyl]-N-methylcarbamoyl}valeric acid], the “Mean plasma concentration” value by setting is: under setting [1], “BLQ (BLQ: Below Lower Limit of Quantification (0.5 ng/mL))”; under setting [2], “BLQ (BLQ: Below Lower Limit of Quantification (0.5 ng/mL))”; under setting [3], “BLQ (BLQ: Below Lower Limit of Quantification (0.5 ng/mL))”; under setting [4], “BLQ (BLQ: Below Lower Limit of Quantification (0.5 ng/mL))”; under setting [5], “BLQ (BLQ: Below Lower Limit of Quantification (0.5 ng/mL))”; under setting [6], “BLQ (BLQ: Below Lower Limit of Quantification (0.5 ng/mL))”.
In the case of `CC(Cc1ccc2c(c1)OCO2)N(C)C(=O)OC1CCOC1` (stereo not drawn) [THF carbamate prodrug of MDMA, tetrahydrofuran-3-yl N-[2-(1,3-benzodioxol-5-yl)-1-methyl-ethyl]-N-methyl-carbamate], the “Mean plasma concentration” value is recorded as “BLQ (BLQ: Below Lower Limit of Quantification (0.5 ng/mL))” under setting [1]; “BLQ (BLQ: Below Lower Limit of Quantification (0.5 ng/mL))” under setting [2]; “BLQ (BLQ: Below Lower Limit of Quantification (0.5 ng/mL))” under setting [3]; “BLQ (BLQ: Below Lower Limit of Quantification (0.5 ng/mL))” under setting [4]; “BLQ (BLQ: Below Lower Limit of Quantification (0.5 ng/mL))” under setting [5]; “BLQ (BLQ: Below Lower Limit of Quantification (0.5 ng/mL))” under setting [6].
For the compound `CC(C)OC(=O)N(C)C(C)Cc1ccc2c(c1)OCO2` (stereo not drawn) [Isopropyl carbamate prodrug of MDMA, isopropyl N-[2-(1,3-benzodioxol-5-yl)-1-methyl-ethyl]-N-methyl-carbamate], the “Mean plasma concentration” value is on record as “BLQ (BLQ: Below Lower Limit of Quantification (0.5 ng/mL))” under setting [1]; “BLQ (BLQ: Below Lower Limit of Quantification (0.5 ng/mL))” under setting [2]; “BLQ (BLQ: Below Lower Limit of Quantification (0.5 ng/mL))” under setting [3]; “BLQ (BLQ: Below Lower Limit of Quantification (0.5 ng/mL))” under setting [4]; “BLQ (BLQ: Below Lower Limit of Quantification (0.5 ng/mL))” under setting [5]; “BLQ (BLQ: Below Lower Limit of Quantification (0.5 ng/mL))” under setting [6].
With `CC(=O)OCC(C)(C)CC(=O)N(C)C(C)Cc1ccc2c(c1)OCO2` (stereo not drawn) [(3-{[2-(2H-1,3-Benzodioxol-5-yl)-1-methylethyl]-N-methylcarbamoyl}-2,2-dimethylpropyl acetate], the “Mean plasma concentration” value is, setting by setting: under setting [1], “BLQ (BLQ: Below Lower Limit of Quantification (0.5 ng/mL))”; under setting [2], “BLQ (BLQ: Below Lower Limit of Quantification (0.5 ng/mL))”; under setting [3], “BLQ (BLQ: Below Lower Limit of Quantification (0.5 ng/mL))”; under setting [4], “BLQ (BLQ: Below Lower Limit of Quantification (0.5 ng/mL))”; under setting [5], “BLQ (BLQ: Below Lower Limit of Quantification (0.5 ng/mL))”; under setting [6], “BLQ (BLQ: Below Lower Limit of Quantification (0.5 ng/mL))”.
In the case of `CC(C)COC(=O)N(C)C(C)Cc1ccc2c(c1)OCO2` (stereo not drawn) [Isobutyl carbamate prodrug of MDMA, isobutyl N-[2-(1,3-benzodioxol-5-yl)-1-methyl-ethyl]-N-methyl-carbamate], the “Mean plasma concentration” value is, setting by setting: under setting [1], “BLQ (BLQ: Below Lower Limit of Quantification (0.5 ng/mL))”; under setting [2], “BLQ (BLQ: Below Lower Limit of Quantification (0.5 ng/mL))”; under setting [3], “BLQ (BLQ: Below Lower Limit of Quantification (0.5 ng/mL))”; under setting [4], “BLQ (BLQ: Below Lower Limit of Quantification (0.5 ng/mL))”; under setting [5], “BLQ (BLQ: Below Lower Limit of Quantification (0.5 ng/mL))”; under setting [6], “BLQ (BLQ: Below Lower Limit of Quantification (0.5 ng/mL))”.
Consider `CCOC(=O)N(C)C(C)Cc1ccc2c(c1)OCO2` (stereo not drawn) [Ethyl carbamate prodrug of MDMA, Ethyl N-[2-(1,3-benzodioxol-5-yl)-1-methyl-ethyl]-N-methyl-carbamate], for which the “Mean plasma concentration” value by setting is: under setting [1], “BLQ (BLQ: Below Lower Limit of Quantification (0.5 ng/mL))”; under setting [2], “BLQ (BLQ: Below Lower Limit of Quantification (0.5 ng/mL))”; under setting [3], “BLQ (BLQ: Below Lower Limit of Quantification (0.5 ng/mL))”; under setting [4], “BLQ (BLQ: Below Lower Limit of Quantification (0.5 ng/mL))”; under setting [5], “BLQ (BLQ: Below Lower Limit of Quantification (0.5 ng/mL))”; under setting [6], “BLQ (BLQ: Below Lower Limit of Quantification (0.5 ng/mL))”.
